Experimental findings from paper PMC5933747 (PLoS ONE, 2018) are described below.

Each structure is given as a SMILES string. Like-named read-outs stand apart in the source and are kept apart here.

Common to all, as to assay type: cell-based
In one test the target is human NaV1.7 (Homo sapiens, UniProt Q15858). Description: IonWorks Quattro (IWQ) electrophysiology, human NaV1.7.
The next test concerns the target human NaV1.4 (Homo sapiens, UniProt P35499). Description: IonWorks Quattro (IWQ) electrophysiology, human NaV1.4.
The target in another test is human NaV1.5 (Homo sapiens, UniProt Q14524). Description: IonWorks Quattro (IWQ) electrophysiology, human NaV1.5.
Sequence of human NaV1.5 (Q14524 whole entry): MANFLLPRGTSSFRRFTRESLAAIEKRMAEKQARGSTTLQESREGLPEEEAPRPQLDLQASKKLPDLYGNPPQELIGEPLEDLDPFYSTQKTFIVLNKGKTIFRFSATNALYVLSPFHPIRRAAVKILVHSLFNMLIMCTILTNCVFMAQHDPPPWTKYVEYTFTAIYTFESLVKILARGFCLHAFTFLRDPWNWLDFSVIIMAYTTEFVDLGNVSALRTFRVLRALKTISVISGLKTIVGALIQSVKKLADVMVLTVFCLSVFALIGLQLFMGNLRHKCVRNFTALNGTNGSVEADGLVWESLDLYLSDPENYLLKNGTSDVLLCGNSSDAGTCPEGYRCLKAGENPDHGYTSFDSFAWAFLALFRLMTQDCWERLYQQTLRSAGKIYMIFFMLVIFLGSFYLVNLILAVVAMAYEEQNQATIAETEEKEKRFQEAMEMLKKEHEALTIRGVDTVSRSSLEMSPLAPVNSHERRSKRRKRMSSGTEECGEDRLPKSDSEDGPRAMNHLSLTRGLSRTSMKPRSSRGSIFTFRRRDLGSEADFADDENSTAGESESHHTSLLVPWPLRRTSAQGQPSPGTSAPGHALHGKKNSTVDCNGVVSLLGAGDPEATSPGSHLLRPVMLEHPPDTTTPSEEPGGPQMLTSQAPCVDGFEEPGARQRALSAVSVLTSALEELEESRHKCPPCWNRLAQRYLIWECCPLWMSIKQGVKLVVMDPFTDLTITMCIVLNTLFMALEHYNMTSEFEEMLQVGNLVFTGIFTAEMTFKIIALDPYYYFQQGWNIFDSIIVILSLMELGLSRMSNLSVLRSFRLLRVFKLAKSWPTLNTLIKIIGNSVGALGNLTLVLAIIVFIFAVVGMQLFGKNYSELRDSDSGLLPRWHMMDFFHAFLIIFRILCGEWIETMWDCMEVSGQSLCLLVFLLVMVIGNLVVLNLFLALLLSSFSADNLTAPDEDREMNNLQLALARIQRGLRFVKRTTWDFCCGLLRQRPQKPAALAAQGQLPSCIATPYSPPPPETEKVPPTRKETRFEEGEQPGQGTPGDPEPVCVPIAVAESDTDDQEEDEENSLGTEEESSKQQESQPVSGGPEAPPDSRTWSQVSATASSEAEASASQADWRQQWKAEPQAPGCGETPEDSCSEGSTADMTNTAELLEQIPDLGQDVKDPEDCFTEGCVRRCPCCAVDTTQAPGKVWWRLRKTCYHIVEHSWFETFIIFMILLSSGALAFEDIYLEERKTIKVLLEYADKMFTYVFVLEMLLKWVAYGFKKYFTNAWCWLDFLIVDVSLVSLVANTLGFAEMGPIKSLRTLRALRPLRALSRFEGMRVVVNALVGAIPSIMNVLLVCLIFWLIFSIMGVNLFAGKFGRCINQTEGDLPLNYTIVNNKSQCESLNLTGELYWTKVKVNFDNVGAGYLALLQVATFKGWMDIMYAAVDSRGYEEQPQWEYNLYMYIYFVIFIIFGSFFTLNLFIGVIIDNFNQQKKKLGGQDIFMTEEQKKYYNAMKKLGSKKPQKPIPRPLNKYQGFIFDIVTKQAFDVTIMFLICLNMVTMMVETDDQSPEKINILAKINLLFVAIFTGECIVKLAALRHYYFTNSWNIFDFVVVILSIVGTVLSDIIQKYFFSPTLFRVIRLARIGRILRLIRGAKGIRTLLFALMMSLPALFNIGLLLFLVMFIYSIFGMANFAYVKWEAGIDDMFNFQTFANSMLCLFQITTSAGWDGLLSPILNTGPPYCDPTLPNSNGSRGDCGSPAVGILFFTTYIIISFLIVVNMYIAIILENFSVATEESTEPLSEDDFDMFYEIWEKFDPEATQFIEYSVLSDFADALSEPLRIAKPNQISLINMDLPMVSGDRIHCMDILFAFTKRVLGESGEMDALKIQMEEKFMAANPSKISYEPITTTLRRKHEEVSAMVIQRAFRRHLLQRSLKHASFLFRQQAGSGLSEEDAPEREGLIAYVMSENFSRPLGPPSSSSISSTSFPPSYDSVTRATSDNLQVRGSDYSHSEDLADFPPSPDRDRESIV
Where [1] appears, read: read-out: Glu mutant IWQ IC50 NaV1.7.
[2] abbreviates: read-out: Glu mutant IWQ IC50 NaV1.4.
[3] abbreviates: read-out: Glu mutant IWQ IC50 NaV1.5.

Sequence of human NaV1.7 (Q15858 whole entry): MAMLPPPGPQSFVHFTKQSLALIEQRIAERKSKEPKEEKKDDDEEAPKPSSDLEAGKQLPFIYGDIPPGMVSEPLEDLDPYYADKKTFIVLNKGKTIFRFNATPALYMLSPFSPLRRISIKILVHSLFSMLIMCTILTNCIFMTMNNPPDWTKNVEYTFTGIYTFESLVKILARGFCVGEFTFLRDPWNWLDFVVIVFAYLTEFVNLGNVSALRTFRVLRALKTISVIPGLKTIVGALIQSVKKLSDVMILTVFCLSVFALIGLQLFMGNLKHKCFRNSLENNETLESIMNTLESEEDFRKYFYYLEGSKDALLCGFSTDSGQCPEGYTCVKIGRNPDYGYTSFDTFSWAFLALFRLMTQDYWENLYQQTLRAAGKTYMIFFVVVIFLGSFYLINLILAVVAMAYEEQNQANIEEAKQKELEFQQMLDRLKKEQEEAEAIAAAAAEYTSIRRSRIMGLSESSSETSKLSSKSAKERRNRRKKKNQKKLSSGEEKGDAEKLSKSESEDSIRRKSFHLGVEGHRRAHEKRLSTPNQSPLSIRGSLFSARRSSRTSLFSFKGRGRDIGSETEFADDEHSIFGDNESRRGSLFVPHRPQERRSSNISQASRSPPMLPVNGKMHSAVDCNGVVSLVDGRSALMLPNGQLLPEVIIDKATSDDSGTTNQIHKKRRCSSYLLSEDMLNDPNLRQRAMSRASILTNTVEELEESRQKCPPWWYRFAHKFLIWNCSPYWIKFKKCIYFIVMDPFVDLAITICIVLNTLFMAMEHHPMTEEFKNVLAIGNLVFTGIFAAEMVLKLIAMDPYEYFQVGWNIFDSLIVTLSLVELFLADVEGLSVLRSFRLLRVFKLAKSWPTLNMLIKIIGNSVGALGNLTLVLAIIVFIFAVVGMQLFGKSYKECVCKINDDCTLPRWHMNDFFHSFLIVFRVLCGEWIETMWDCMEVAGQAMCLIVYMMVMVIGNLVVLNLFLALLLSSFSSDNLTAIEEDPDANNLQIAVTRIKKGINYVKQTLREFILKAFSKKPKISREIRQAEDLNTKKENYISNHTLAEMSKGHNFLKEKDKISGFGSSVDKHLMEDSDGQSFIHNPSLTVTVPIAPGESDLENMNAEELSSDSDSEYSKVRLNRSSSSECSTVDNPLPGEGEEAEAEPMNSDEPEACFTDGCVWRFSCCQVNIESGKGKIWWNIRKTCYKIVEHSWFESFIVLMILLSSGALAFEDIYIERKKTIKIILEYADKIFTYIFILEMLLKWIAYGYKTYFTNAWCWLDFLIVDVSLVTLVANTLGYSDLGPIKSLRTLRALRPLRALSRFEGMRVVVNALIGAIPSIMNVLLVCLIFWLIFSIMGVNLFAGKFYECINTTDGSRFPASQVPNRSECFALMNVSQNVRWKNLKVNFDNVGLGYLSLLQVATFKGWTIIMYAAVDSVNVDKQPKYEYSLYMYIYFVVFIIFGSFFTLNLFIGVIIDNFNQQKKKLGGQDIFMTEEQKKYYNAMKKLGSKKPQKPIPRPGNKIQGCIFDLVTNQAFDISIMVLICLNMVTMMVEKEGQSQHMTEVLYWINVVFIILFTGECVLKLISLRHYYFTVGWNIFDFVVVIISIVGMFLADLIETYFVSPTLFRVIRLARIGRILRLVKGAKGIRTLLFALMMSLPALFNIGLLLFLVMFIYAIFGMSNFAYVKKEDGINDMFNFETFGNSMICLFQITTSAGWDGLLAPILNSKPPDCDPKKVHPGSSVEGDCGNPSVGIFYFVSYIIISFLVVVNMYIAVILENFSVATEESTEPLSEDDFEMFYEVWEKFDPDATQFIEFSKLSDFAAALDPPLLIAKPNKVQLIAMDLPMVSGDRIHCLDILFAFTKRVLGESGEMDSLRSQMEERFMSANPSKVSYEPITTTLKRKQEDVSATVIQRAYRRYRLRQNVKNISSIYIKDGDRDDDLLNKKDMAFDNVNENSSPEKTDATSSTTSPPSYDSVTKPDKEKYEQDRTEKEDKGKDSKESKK

Regarding `CC[C@H](C)[C@H](NC(=O)[C@@H](NC(=O)[C@H](CCCCN)NC(=O)[C@H](CCCNC(=N)N)NC(=O)[C@@H]1CSSC[C@@H]2NC(=O)[C@H](C)NC(=O)[C@H](CCCNC(=N)N)NC(=O)[C@H](CCCCN)NC(=O)[C@H](CO)NC(=O)[C@H](C)NC(=O)[C@@H]3CSSC[C@H](NC(=O)[C@H](CCCNC(=N)N)NC(=O)[C@H](CC(C)C)NC(=O)CNC(=O)[C@H](CCC(=O)O)NC(=O)[C@H](CSSC[C@H](NC(=O)[C@@H](N)Cc4ccc(O)cc4)C(=O)N[C@@H](CCC(N)=O)C(=O)N[C@@H](CCCCN)C(=O)N[C@@H](Cc4c[nH]c5ccccc45)C(=O)N[C@@H](CCSC)C(=O)N[C@@H](Cc4c[nH]c5ccccc45)C(=O)N[C@@H]([C@@H](C)O)C(=O)N3)NC2=O)C(=O)N[C@@H](CCCCN)C(=O)N[C@@H](CC(C)C)C(=O)N[C@@H](Cc2c[nH]c3ccccc23)C(=O)N1)[C@@H](C)CC)C(N)=O` [D10 Ala mutant], the IC50 on human NaV1.7 (read-out: Ala mutant IWQ IC50 NaV1.7) was 0.345 µM; on human NaV1.4 (read-out: Ala mutant IWQ IC50 NaV1.4), 0.917 µM; on human NaV1.5 (read-out: Ala mutant IWQ IC50 NaV1.5), over 10 µM.

On to `CC[C@H](C)[C@H](NC(=O)[C@@H](NC(=O)[C@H](CCC(=O)O)NC(=O)[C@H](CCCNC(=N)N)NC(=O)[C@@H]1CSSC[C@@H]2NC(=O)[C@H](C)NC(=O)[C@H](CCCNC(=N)N)NC(=O)[C@H](CCCCN)NC(=O)[C@H](CO)NC(=O)[C@H](CC(=O)O)NC(=O)[C@@H]3CSSC[C@H](NC(=O)[C@H](CCCNC(=N)N)NC(=O)[C@H](CC(C)C)NC(=O)CNC(=O)[C@H](CCC(=O)O)NC(=O)[C@H](CSSC[C@H](NC(=O)[C@@H](N)Cc4ccc(O)cc4)C(=O)N[C@@H](CCC(N)=O)C(=O)N[C@@H](CCCCN)C(=O)N[C@@H](Cc4c[nH]c5ccccc45)C(=O)N[C@@H](CCSC)C(=O)N[C@@H](Cc4c[nH]c5ccccc45)C(=O)N[C@@H]([C@@H](C)O)C(=O)N3)NC2=O)C(=O)N[C@@H](CCCCN)C(=O)N[C@@H](CC(C)C)C(=O)N[C@@H](Cc2c[nH]c3ccccc23)C(=O)N1)[C@@H](C)CC)C(N)=O` [K27 Glu mutant], for which the figures for the IC50 on human NaV1.7 (setting [1]), at human NaV1.4 (setting [2]) and at human NaV1.5 (setting [3]) were 0.748 µM, over 10 µM and over 10 µM, respectively.

As for `CC[C@H](C)[C@H](NC(=O)[C@@H](NC(=O)[C@H](CCCCN)NC(=O)[C@H](CCCNC(=N)N)NC(=O)[C@@H]1CSSC[C@@H]2NC(=O)[C@H](C)NC(=O)[C@H](CCCNC(=N)N)NC(=O)[C@H](CCCCN)NC(=O)[C@H](CO)NC(=O)[C@H](CCC(=O)O)NC(=O)[C@@H]3CSSC[C@H](NC(=O)[C@H](CCCNC(=N)N)NC(=O)[C@H](CC(C)C)NC(=O)CNC(=O)[C@H](CCC(=O)O)NC(=O)[C@H](CSSC[C@H](NC(=O)[C@@H](N)Cc4ccc(O)cc4)C(=O)N[C@@H](CCC(N)=O)C(=O)N[C@@H](CCCCN)C(=O)N[C@@H](Cc4c[nH]c5ccccc45)C(=O)N[C@@H](CCSC)C(=O)N[C@@H](Cc4c[nH]c5ccccc45)C(=O)N[C@@H]([C@@H](C)O)C(=O)N3)NC2=O)C(=O)N[C@@H](CCCCN)C(=O)N[C@@H](CC(C)C)C(=O)N[C@@H](Cc2c[nH]c3ccccc23)C(=O)N1)[C@@H](C)CC)C(N)=O` [D10 Glu mutant], the figures for the IC50 on human NaV1.7 (setting [1]), at human NaV1.4 (setting [2]) and at human NaV1.5 (setting [3]) were 1.3 µM, 8.8 µM and over 10 µM, respectively.

With `CC[C@H](C)[C@H](NC(=O)[C@@H](NC(=O)[C@H](CCCCN)NC(=O)[C@H](CCCNC(=N)N)NC(=O)[C@@H]1CSSC[C@@H]2NC(=O)[C@H](C)NC(=O)[C@H](CCCNC(=N)N)NC(=O)[C@H](CCC(=O)O)NC(=O)[C@H](CO)NC(=O)[C@H](CC(=O)O)NC(=O)[C@@H]3CSSC[C@H](NC(=O)[C@H](CCCNC(=N)N)NC(=O)[C@H](CC(C)C)NC(=O)CNC(=O)[C@H](CCC(=O)O)NC(=O)[C@H](CSSC[C@H](NC(=O)[C@@H](N)Cc4ccc(O)cc4)C(=O)N[C@@H](CCC(N)=O)C(=O)N[C@@H](CCCCN)C(=O)N[C@@H](Cc4c[nH]c5ccccc45)C(=O)N[C@@H](CCSC)C(=O)N[C@@H](Cc4c[nH]c5ccccc45)C(=O)N[C@@H]([C@@H](C)O)C(=O)N3)NC2=O)C(=O)N[C@@H](CCCCN)C(=O)N[C@@H](CC(C)C)C(=O)N[C@@H](Cc2c[nH]c3ccccc23)C(=O)N1)[C@@H](C)CC)C(N)=O` [K12 Glu mutant], the figures for the IC50 on human NaV1.7 (setting [1]), at human NaV1.4 (setting [2]) and on human NaV1.5 (setting [3]) were 0.755 µM, over 10 µM and over 10 µM, respectively.
